Earlier results in publication PMC8955938, “c-Myc Protein Level Affected by Unsymmetrical Bisacridines Influences Apoptosis and Senescence Induced in HCT116 Colorectal and H460 Lung Cancer Cells” (International Journal of Molecular Sciences, 2022).

Design: method as in PMID 26485768, PMID 17009029, PMID 21805041, PMID 30894570
Details: established in similar conditions; irinotecan colon cancer treatment, cisplatin lung cancer treatment; cited from earlier work

N.N.[Cl][Pt][Cl] [cisplatin]
IC50: ~5 µM

CCc1c2c(nc3ccc(OC(=O)N4CCC(N5CCCCC5)CC4)cc13)-c1cc3c(c(=O)n1C2)COC(=O)[C@]3(O)CC [irinotecan]
IC50: ~5 µM
